A word on the MIC: it is the smallest concentration in the dilution series that meets the test's criterion for growth inhibition. A lower MIC goes with a more susceptible organism.

Common to all, as to type: functional
One assay deals with Staphylococcus aureus. Briefly: In vitro minimum inhibitory concentration against Staphylococcus aureus (10strains, including MRSA).
For another assay, the system named is Enterococcus sp. Briefly: In vitro minimum inhibitory concentration against Enterococcus species (11 strains, including VRE).
The next assay has as its system Streptococcus. Briefly: In vitro minimum inhibitory concentration against Streptococcus Species (5 strains, including PRSP).

≈ marks a conversion by molar mass, not a printed value.

For the compound `C[C@@H](c1ccccc1)[C@@H]1NC(=O)CNC(=O)[C@H](CO)NC(=O)[C@@H]([C@@H](O)[C@@H]2CN=C(N)N2[C@H]2O[C@H](CO)[C@@H](O)[C@H](O)[C@@H]2O)NC(=O)[C@H]([C@H](O)[C@@H]2CN=C(N)N2)NC(=O)[C@@H](Cc2ccc3nc(-c4ccc(OCc5ccccc5)cc4)oc3c2)NC1=O`, the values for the MIC with Staphylococcus aureus, against Enterococcus sp. and against Streptococcus were 8 µg/mL (≈ 6.79 µM), 4 µg/mL (≈ 3.39 µM) and 8 µg/mL (≈ 6.79 µM), respectively.

Take `C[C@@H](c1ccccc1)[C@@H]1NC(=O)CNC(=O)[C@H](CO)NC(=O)[C@@H]([C@@H](O)[C@@H]2CN=C(N)N2[C@H]2O[C@H](CO)[C@@H](O)[C@H](O)[C@@H]2O)NC(=O)[C@H]([C@H](O)[C@@H]2CN=C(N)N2)NC(=O)[C@@H](Cc2ccc3nc(NC4O[C@@H](OC(=O)c5ccccc5)[C@H](OC(=O)c5ccccc5)[C@@H](OC(=O)c5ccccc5)[C@@H]4COC(=O)c4ccccc4)oc3c2)NC1=O` (stereo partly specified): the MIC in the assay with Staphylococcus aureus is 32 µg/mL (≈ 20.1 µM); against Enterococcus sp., 4 µg/mL (≈ 2.52 µM); against Streptococcus it was 4 µg/mL (≈ 2.52 µM).

Turning to `C[C@@H](c1ccccc1)[C@@H]1NC(=O)CNC(=O)[C@H](CO)NC(=O)[C@@H]([C@@H](O)[C@@H]2CN=C(N)N2[C@H]2O[C@H](CO)[C@@H](O)[C@H](O)[C@@H]2O)NC(=O)[C@H]([C@H](O)[C@@H]2CN=C(N)N2)NC(=O)[C@@H](Cc2ccc3nc(-c4ccc(C(C)(C)C)cc4)oc3c2)NC1=O`, the MIC in the assay on Staphylococcus aureus is 2 µg/mL (≈ 1.77 µM); against Enterococcus sp., 2 µg/mL (≈ 1.77 µM); against Streptococcus it was 8 µg/mL (≈ 7.09 µM).

Consider `CN[C@H](CC(C)C)C(=O)N[C@H]1C(=O)N[C@@H](CC(N)=O)C(=O)N[C@H]2C(=O)N[C@H]3C(=O)N[C@H](C(=O)N[C@H](C(=O)O)c4cc(O)cc(O)c4-c4cc3ccc4O)[C@H](O)c3ccc(c(Cl)c3)Oc3cc2cc(c3O[C@@H]2O[C@H](CO)[C@@H](O)[C@H](O)[C@H]2O[C@H]2C[C@](C)(N)[C@H](O)[C@H](C)O2)Oc2ccc(cc2Cl)[C@H]1O` [VANCOMYCIN], for which the MIC is 5 µg/mL (≈ 3.45 µM) in the assay with Enterococcus sp. and 0.25 µg/mL (≈ 0.173 µM) in the assay on Streptococcus.

For the compound `C[C@@H](c1ccccc1)[C@@H]1NC(=O)CNC(=O)[C@H](CO)NC(=O)[C@@H]([C@@H](O)[C@@H]2CN=C(N)N2[C@H]2O[C@H](CO)[C@@H](O)[C@H](O)[C@@H]2O)NC(=O)[C@H]([C@H](O)[C@@H]2CN=C(N)N2)NC(=O)[C@@H](Cc2ccc3nc(-c4ccc5c(c4)-c4ccccc4C5)oc3c2)NC1=O`, the minimum inhibitory concentration (MIC) in the assay on Staphylococcus aureus turned out to be 8 µg/mL (≈ 6.9 µM); against Enterococcus sp., 4 µg/mL (≈ 3.45 µM); against Streptococcus, 4 µg/mL (≈ 3.45 µM).

With `C[C@@H](c1ccccc1)[C@@H]1NC(=O)CNC(=O)[C@H](CO)NC(=O)[C@@H]([C@@H](O)[C@@H]2CN=C(N)N2[C@H]2O[C@H](CO)[C@@H](O)[C@H](O)[C@@H]2O)NC(=O)[C@H]([C@H](O)[C@@H]2CN=C(N)N2)NC(=O)[C@@H](Cc2ccc3nc(C=C(c4ccccc4)c4ccccc4)oc3c2)NC1=O`, the figures for the MIC with Staphylococcus aureus, against Enterococcus sp. and against Streptococcus were 8 µg/mL (≈ 6.81 µM), 8 µg/mL (≈ 6.81 µM) and 4 µg/mL (≈ 3.41 µM), respectively.

For the compound `COc1cc(-c2nc3ccc(C[C@H]4NC(=O)[C@H]([C@@H](C)c5ccccc5)NC(=O)CNC(=O)[C@H](CO)NC(=O)[C@@H]([C@@H](O)[C@@H]5CN=C(N)N5[C@H]5O[C@H](CO)[C@@H](O)[C@H](O)[C@@H]5O)NC(=O)[C@H]([C@H](O)[C@@H]5CN=C(N)N5)NC4=O)cc3o2)cc(OC)c1OC`, the MIC in the assay on Staphylococcus aureus, against Enterococcus sp. and against Streptococcus was 8 µg/mL (≈ 6.88 µM) throughout.

Take `C[C@@H](c1ccccc1)[C@@H]1NC(=O)CNC(=O)[C@H](CO)NC(=O)[C@@H]([C@@H](O)[C@@H]2CN=C(N)N2[C@H]2O[C@H](CO)[C@@H](O)[C@H](O)[C@@H]2O)NC(=O)[C@H]([C@H](O)[C@@H]2CN=C(N)N2)NC(=O)[C@@H](Cc2ccc3nc(-c4ccc(-c5ccccc5)cc4)oc3c2)NC1=O`: the minimum inhibitory concentration (MIC) in the assay with Staphylococcus aureus stood at 4 µg/mL (≈ 3.48 µM); with Enterococcus sp., 4 µg/mL (≈ 3.48 µM); in the assay with Streptococcus it was 16 µg/mL (≈ 13.9 µM).

In the case of `C[C@@H](c1ccccc1)[C@@H]1NC(=O)CNC(=O)[C@H](CO)NC(=O)[C@@H]([C@@H](O)[C@@H]2CN=C(N)N2[C@H]2O[C@H](CO)[C@@H](O)[C@H](O)[C@@H]2O)NC(=O)[C@H]([C@H](O)[C@@H]2CN=C(N)N2)NC(=O)[C@@H](Cc2ccc3nc(-c4ccc(C(=O)O)cc4)oc3c2)NC1=O`, the values for the MIC against Staphylococcus aureus, against Enterococcus sp. and in the assay on Streptococcus were above 128 µg/mL, 128 µg/mL (≈ 115 µM) and 128 µg/mL (≈ 115 µM), respectively.

With `C[C@@H](c1ccccc1)[C@@H]1NC(=O)CNC(=O)[C@H](CO)NC(=O)[C@@H]([C@@H](O)[C@@H]2CN=C(N)N2[C@H]2O[C@H](CO)[C@@H](O)[C@H](O)[C@@H]2O)NC(=O)[C@H]([C@H](O)[C@@H]2CN=C(N)N2)NC(=O)[C@@H](Cc2ccc3nc(SCc4ccc(-c5ccccc5)cc4)oc3c2)NC1=O`, the MIC in the assay on Staphylococcus aureus is 8 µg/mL (≈ 6.7 µM); with Enterococcus sp. it was 2 µg/mL (≈ 1.67 µM); in the assay with Streptococcus, 2 µg/mL (≈ 1.67 µM).

Regarding `C[C@@H](c1ccccc1)[C@@H]1NC(=O)CNC(=O)[C@H](CO)NC(=O)[C@@H]([C@@H](O)[C@@H]2CN=C(N)N2[C@H]2O[C@H](CO)[C@@H](O)[C@H](O)[C@@H]2O)NC(=O)[C@H]([C@H](O)[C@@H]2CN=C(N)N2)NC(=O)[C@@H](Cc2ccc3nc(SCC(=O)c4ccccc4)oc3c2)NC1=O`, the MIC was found to be 8 µg/mL (≈ 6.98 µM) in the assay on Staphylococcus aureus, 4 µg/mL (≈ 3.49 µM) in the assay on Enterococcus sp. and 8 µg/mL (≈ 6.98 µM) in the assay on Streptococcus.

In the case of `C[C@@H](c1ccccc1)[C@@H]1NC(=O)CNC(=O)[C@H](CO)NC(=O)[C@@H]([C@@H](O)[C@@H]2CN=C(N)N2[C@H]2O[C@H](CO)[C@@H](O)[C@H](O)[C@@H]2O)NC(=O)[C@H]([C@H](O)[C@@H]2CN=C(N)N2)NC(=O)[C@@H](Cc2ccc3nc(SCc4ccccc4)oc3c2)NC1=O`, the MIC with Staphylococcus aureus, in the assay with Enterococcus sp. and with Streptococcus was 4 µg/mL (≈ 3.58 µM) throughout.

`C[C@@H](c1ccccc1)[C@@H]1NC(=O)CNC(=O)[C@H](CO)NC(=O)[C@@H]([C@@H](O)[C@@H]2CN=C(N)N2[C@H]2O[C@H](CO)[C@@H](O)[C@H](O)[C@@H]2O)NC(=O)[C@H]([C@H](O)[C@@H]2CN=C(N)N2)NC(=O)[C@@H](Cc2ccc3nc(-c4cccc(C(C)(C)C)c4)oc3c2)NC1=O`: the MIC came out at 16 µg/mL (≈ 14.2 µM) in the assay with Staphylococcus aureus, 8 µg/mL (≈ 7.09 µM) against Enterococcus sp. and 8 µg/mL (≈ 7.09 µM) with Streptococcus.

Consider `C[C@@H](c1ccccc1)[C@@H]1NC(=O)CNC(=O)[C@H](CO)NC(=O)[C@@H]([C@@H](O)[C@@H]2CN=C(N)N2[C@H]2O[C@H](CO)[C@@H](O)[C@H](O)[C@@H]2O)NC(=O)[C@H]([C@H](O)[C@@H]2CN=C(N)N2)NC(=O)[C@@H](Cc2ccc3nc(-c4ccc(Br)cc4)oc3c2)NC1=O`, for which the MIC in the assay with Staphylococcus aureus stood at 8 µg/mL (≈ 6.95 µM); with Enterococcus sp., 8 µg/mL (≈ 6.95 µM); against Streptococcus it was 4 µg/mL (≈ 3.48 µM).

With `C[C@@H](c1ccccc1)[C@@H]1NC(=O)CNC(=O)[C@H](CO)NC(=O)[C@@H]([C@@H](O)[C@@H]2CN=C(N)N2[C@H]2O[C@H](CO)[C@@H](O)[C@H](O)[C@@H]2O)NC(=O)[C@H]([C@H](O)[C@@H]2CN=C(N)N2)NC(=O)[C@@H](Cc2ccc3nc(-c4ccccc4OC4O[C@H](CO)[C@@H](O)[C@H](O)[C@H]4O)oc3c2)NC1=O` (stereo partly specified), the MIC in the assay on Staphylococcus aureus is above 128 µg/mL; in the assay on Enterococcus sp., 128 µg/mL (≈ 102 µM); against Streptococcus, 128 µg/mL (≈ 102 µM).

Consider `C[C@@H](c1ccccc1)[C@@H]1NC(=O)CNC(=O)[C@H](CO)NC(=O)[C@@H]([C@@H](O)[C@@H]2CN=C(N)N2[C@H]2O[C@H](CO)[C@@H](O)[C@H](O)[C@@H]2O)NC(=O)[C@H]([C@H](O)[C@@H]2CN=C(N)N2)NC(=O)[C@@H](Cc2ccc3nc(-c4cccs4)oc3c2)NC1=O`, for which the MIC with Staphylococcus aureus worked out at 8 µg/mL (≈ 7.42 µM); with Enterococcus sp., 16 µg/mL (≈ 14.8 µM); against Streptococcus, 16 µg/mL (≈ 14.8 µM).

Regarding `CC(C)=Cc1nc2ccc(C[C@H]3NC(=O)[C@H]([C@@H](C)c4ccccc4)NC(=O)CNC(=O)[C@H](CO)NC(=O)[C@@H]([C@@H](O)[C@@H]4CN=C(N)N4[C@H]4O[C@H](CO)[C@@H](O)[C@H](O)[C@@H]4O)NC(=O)[C@H]([C@H](O)[C@@H]4CN=C(N)N4)NC3=O)cc2o1`, the MIC is 32 µg/mL (≈ 30.5 µM) against Staphylococcus aureus, 16 µg/mL (≈ 15.2 µM) in the assay on Enterococcus sp. and 32 µg/mL (≈ 30.5 µM) against Streptococcus.

Regarding `C[C@@H](c1ccccc1)[C@@H]1NC(=O)CNC(=O)[C@H](CO)NC(=O)[C@@H]([C@@H](O)[C@@H]2CN=C(N)N2)NC(=O)[C@H]([C@H](O)[C@@H]2CN=C(N)N2)NC(=O)[C@@H](Cc2ccc3nc(-c4ccccc4)oc3c2)NC1=O`, the MIC in the assay on Staphylococcus aureus, against Enterococcus sp. and in the assay on Streptococcus was 32 µg/mL (≈ 35.2 µM) each time.

Take `C[C@@H](c1ccccc1)[C@@H]1NC(=O)CNC(=O)[C@H](CO)NC(=O)[C@@H]([C@@H](O)[C@@H]2CN=C(N)N2[C@H]2O[C@H](CO)[C@@H](O)[C@H](O)[C@@H]2O)NC(=O)[C@H]([C@H](O)[C@@H]2CN=C(N)N2)NC(=O)[C@@H](Cc2ccc3nc(-c4ccco4)oc3c2)NC1=O`: the figures for the MIC in the assay on Staphylococcus aureus, against Enterococcus sp. and in the assay with Streptococcus were 6 µg/mL (≈ 5.65 µM), 32 µg/mL (≈ 30.1 µM) and 32 µg/mL (≈ 30.1 µM), respectively.

For the origin of these results see ChEMBL document CHEMBL1136143, “Synthesis and activity of novel benzoxazole derivatives of mannopeptimycin glycopeptide antibiotics” (2003).
